# Test: Thermogravimetric analysis (TGA) / DSC of API vaporisation from crosslinked β-cyclodextrin micro sponge complex under nitrogen purge
# Format: physicochemical
# Method: Differential scanning calorimetry (“DSC”) and thermogravimetric analysis (“TGA”) was performed on a Netzsch STA 409PC/PG with Infrared (“IR”) analysis of the volatiles under a purge of nitrogen gas. TGA was completed at a temperature of 250° C.
# The suitability of an API for vaping from the insoluble β-cyclodextrin micro sponge, or from other crosslinked polysaccharide micro sponges, can be tested using TGA. When TGA is applied, a sample of API bound with the insoluble β-cyclodextrin micro sponge is heated at a constant rate, simulating the heat used in a vaporisation device. The sample is kept under a constant flow of nitrogen gas, simulating the inhalation of the user, drawing volatile compounds away from the heated sample.
# Vaporization kinetics refer to the rate of dissociation of the API as vapour from the micro sponge, as determined by TGA.
smiles,measurement,setting,value
"CCCCCc1cc(O)c(C/C=C(\C)CCC=C(C)C)c(O)c1C(=O)O [CBGA, cannabigerolic acid]",onset temperature of vaporisation of CBG following decarboxylation from CBGA (TGA),"Example III, ramp rate 5° C. min^-1",190 °C
"CCCCCc1cc(O)c(C/C=C(\C)CCC=C(C)C)c(O)c1 [CBG, cannabigerol]",onset temperature of vaporisation of API (TGA),"Examples II, IV, V, VI, ramp rate 5° C. min^-1",190 °C
"C=C(C)[C@@H]1CCC(C)=C[C@H]1c1c(O)cc(CCCCC)cc1O [CBD, cannabidiol]",onset temperature of vaporisation of CBD (TGA),"Example I, ramp rate 10° C. min^-1",160 °C

# Reference: patent US20240115715A1, “PHARMACEUTICAL COMPOSITIONS FOR VAPORIZATION AND INHALATION” (GROW BIOTECH PLC, priority 2022, published 2024)
